Reference: patent US20030088057A1, “PEPTIDE SUBSTRATES PHOSPHORYLATED BY P21-ACTIVAGED PROTEIN KINASE STATEMENT REGARDING FEDERALLY SPONSORED REASEARCH OR DEVELOPMENT” (priority 1998, published 2003)
No end group written: not given here.

Experiments:
PKA = target: T1, PKA (Bos taurus, UniProt P00517); test: Rates of phosphorylation of synthetic peptides by PKA; type: biochemical, bovine
T1 construct: the purified catalytic subunit of cAMP-dependent protein kinase from bovine heart was a gift; from tissue; host or cells: bovine heart (gift from Dr. William H. Fletcher)
Description: A. Materials. γ-PAK was purified from rabbit reticulocytes to apparent homogeneity by chromatography on DEAE-cellulose, SP-Sepharose, protamine agarose, and FPLC on Mono S and Mono Q. Histone I (type IIIS), mixed histone (type IIAS), trypsin (L-1-tosylamido-2-phenylethyl chloromethyl ketone treated), soybean trypsin inhibitor, bovine serum albumin (fatty acid free), and myelin basic protein were purchased from Sigma. Purified histones 2B and 4 were purchased from Boehringer-Mannheim. […] Protein kinase C was purified from bovine brain according to the procedure of Walton et al. [Walton, G. M., et al., Anal Biochem., 161:425-437 (1987)], with modifications [Venema, R. C., et al., J. Biol. Chem., 266:5298-5302 (1991)]. The clone for GST-Cdc42 was generously provided by Dr. Channing Der, University of North Carolina, Chapel Hill, N.C. Cellulose thin-layer chromatography sheets were from Kodak.
(§1) Reactions with PKA (10.5 units) were carried out under the same conditions as with γ-PAK except that 0.14 mM ATP was used. Reactions with PKC (3.4 units) were performed as with PKA, with the addition of 0.4 mM CaCl2, phosphatidylinositol (15 μg/mL), phosphatidylserine (15 μg/ mL), and 1,2-diolein (3 μg/mL), as described [Tuazon, P. T., et al., (1989), supra]. A unit of PKA or PKC is defined as the amount of enzyme that incorporates 1 pmol of phosphate/min at 30° C. into histone IIAS or histone 1, respectively.
PKA and PKC are known to require basic amino acids on the N-terminal side of the phosphorylatable serine/ threonine. To distinguish their substrate specificities from that of γ-PAK, the relative rates of phosphorylation were determined with the synthetic peptide substrates using the conditions for γ-PAK, with the addition of Ca^2+ and phospholipids for PKC.

γ-PAK [1] = test: Rates of phosphorylation of synthetic peptides by γ-PAK; type: biochemical, rabbit
Sequence of γ-PAK (Q29502 249-500 limits assumed): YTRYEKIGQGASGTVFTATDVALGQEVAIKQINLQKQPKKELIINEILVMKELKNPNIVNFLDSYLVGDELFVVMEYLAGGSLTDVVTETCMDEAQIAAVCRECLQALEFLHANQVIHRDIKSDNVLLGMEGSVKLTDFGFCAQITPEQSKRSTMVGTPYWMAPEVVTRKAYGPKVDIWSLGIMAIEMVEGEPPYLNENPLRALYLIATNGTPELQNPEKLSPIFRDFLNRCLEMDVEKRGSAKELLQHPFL
Description: (§2) A. Materials. γ-PAK was purified from rabbit reticulocytes to apparent homogeneity by chromatography on DEAE-cellulose, SP-Sepharose, protamine agarose, and FPLC on Mono S and Mono Q. Histone I (type IIIS), mixed histone (type IIAS), trypsin (L-1-tosylamido-2-phenylethyl chloromethyl ketone treated), soybean trypsin inhibitor, bovine serum albumin (fatty acid free), and myelin basic protein were purchased from Sigma. Purified histones 2B and 4 were purchased from Boehringer-Mannheim. Myosin light chain from rabbit skeletal muscle was a gift from Dr. James Stull, University of Texas Southwestern Medical Center, Dallas, Tex.; rat prolactin was provided by Dr. Ameae Walker, University of California, Riverside, Calif.; and the purified catalytic subunit of cAMP-dependent protein kinase from bovine heart was a gift from Dr. William H. Fletcher, J. L. Pettis Memorial V. A. Hospital, Loma Linda, Calif. Protein kinase C was purified from bovine brain according to the procedure of Walton et al. [Walton, G. M., et al., Anal Biochem., 161:425-437 (1987)], with modifications [Venema, R. C., et al., J. Biol. Chem., 266:5298-5302 (1991)]. The clone for GST-Cdc42 was generously provided by Dr. Channing Der, University of North Carolina, Chapel Hill, N.C. Cellulose thin-layer chromatography sheets were from Kodak.
D. Phosphorylation Assays. Phosphorylation of protein substrates was carried out in 35 μL reaction mixtures containing 20 mM Tris-HCl, pH 7.4, 10 mM MgCl2, 30 mM 2-mercaptoethanol, 0.2 mM ATP (specific activity =1000 cpm/pmol), 2 μg of protein substrate, and 20 units of active γ-PAK (an enzyme unit is defined as the amount of enzyme that incorporates 1 pmol of phosphate into histone IIAS/ min at 30°. Under these conditions, phosphate incorporation was linear and initial rates of phosphorylation were measured. After incubation at 30° C. for 15 min, reactions were terminated by the addition of 5 μL of 100 mM nonlabeled ATP and sample buffer for gel electrophoresis [Hathaway, G. M., et al., Methods Enzymol., 60:495-511 (1979)]. Reaction mixtures were subjected to SDS-PAGE on 15% polyacrylamide gels followed by autoradiography. Phosphorylation was quantified by excising the protein band and counting the incorporated ^32P in a liquid scintillation counter. The specific activity of γ-PAK was 400 pmol min^−1 μg^−1 as reported previously using 0.2 mM ATP and 1 mg/mL mixed histone as substrate [Rooney, R. D., et al., (1996), supra].
(§3) Assays with peptides (I mM) were carried out with γ-PAK (1.6-5.6 units) in 25 μL reaction mixtures incubated for 30 min at 30° C. under conditions described above, except that 0.4 mg/mL of bovine serum albumin was added and the specific activity of ATP was 300-2000 cpm/pmol. Reactions were terminated with 5 μL of 100 mM ATP, and the amount of ^32p incorporated was quantitated by precipitation of 20 μL aliquots on P81 phosphocellulose paper with 75 mM H3PO4 as described previously [Bensen, E. S., et al., Biochim. Biophys. Acta, 1292:249-258 (1996)]. Peptides containing only one basic amino acid were analyzed by thin-layer electrophoresis on cellulose sheets for 2 h at 600 V with pyridine/acetic acid/water (10:100:890), pH 3.5, as solvent, as described previously [Bensen, E. S., et al., supra]. Activation of γ-PAK by autophosphorylation in the presence of Cdc42(GTPγS) was performed as previously described [Jakobi, R., et al., supra]. γ-PAK was also activated by limited digestion with trypsin as described previously [Rooney, R. D., et al., (1996), supra].

γ-PAK [2] = target: T2, γ-PAK (Oryctolagus cuniculus, UniProt Q29502); test: Phosphorylation of heptapeptides by Cdc42-activated γ-PAK with ATP(Mg) and ATP(Mn); type: biochemical, rabbit; details: γ-PAK 2.5 units, Cdc42(GTPγS)-activated; 10 mM MgCl2 or 6 mM MnCl2
T2 construct: γ-PAK was purified from rabbit reticulocytes to apparent homogeneity; from tissue; host or cells: rabbit reticulocytes (γ-PAK)
T2 sequence (Q29502 2-524 limits assumed): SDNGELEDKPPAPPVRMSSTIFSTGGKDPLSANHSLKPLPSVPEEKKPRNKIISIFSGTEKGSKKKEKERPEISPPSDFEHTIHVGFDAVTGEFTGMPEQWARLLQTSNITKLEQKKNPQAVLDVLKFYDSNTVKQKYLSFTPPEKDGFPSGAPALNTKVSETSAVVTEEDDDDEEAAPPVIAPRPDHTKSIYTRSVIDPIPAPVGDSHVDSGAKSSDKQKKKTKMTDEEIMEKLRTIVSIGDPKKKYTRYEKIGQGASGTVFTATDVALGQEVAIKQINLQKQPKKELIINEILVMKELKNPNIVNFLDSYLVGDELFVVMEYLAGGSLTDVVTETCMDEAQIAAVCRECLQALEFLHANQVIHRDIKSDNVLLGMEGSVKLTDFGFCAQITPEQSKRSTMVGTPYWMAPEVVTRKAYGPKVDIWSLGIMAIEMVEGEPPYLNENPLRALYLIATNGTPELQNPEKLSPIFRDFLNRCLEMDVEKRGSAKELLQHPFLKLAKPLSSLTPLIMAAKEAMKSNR
Procedure: Synthetic heptapeptides were used to examine the activity of γ-PAK with manganese and magnesium. The peptides were incubated with γ-PAK (2.5 units), activated by autophosphorylation in the presence of Cdc42(GTPγS) and 10 mM MgCl2 or 6 mM MnCl2 as described under Experimental Procedures.

PKC = test: Rates of phosphorylation of synthetic peptides by PKC; type: biochemical, bovine
Description: as §2, §1
PKA and PKC are known to require basic amino acids on the N-terminal side of the phosphorylatable serine/ threonine. To distinguish their substrate specificities from that of γ-PAK, the relative rates of phosphorylation were determined with the synthetic peptide substrates using the conditions for γ-PAK, with the addition of Ca^2+ and phospholipids for PKC. The rates shown in Table 5 are calculated with equivalent units of enzyme; the rate of phosphorylation of the peptide AKRASAA (SEQ ID NO:6) is taken as 100% for all three enzymes. As would be expected, PKA preferentially phosphorylated the peptides that contained RR or RK at the −3 and −2 positions and with […] residues or proline at the −4 and −1 positions inhibitory. PKC recognized SKR>RKS>KKS. The most notable difference between γ-PAK and PKA or PKC is the effect of acidic residues on the susceptibility of the peptide to be phosphorylated. An acidic residue in the −1 or −4 position was beneficial for γ-PAK but was detrimental for both PKA and PKC (Table 5). […] In addition, γ-PAK could not tolerate an arginine in the −3 position when lysine was in the −2 position.

γ-PAK [3] = test: Kinetic parameters (Km, Vmax) for phosphorylation of synthetic peptides by γ-PAK; type: biochemical, rabbit
Procedure: as §3

Substance: AKRESAA (AKRESAA-NH2) [synthetic peptide with an amide C-terminal group]
- 32P incorporated (PKA; PKA (10.5 units), 0.14 mM ATP): 1.8 pmol/unit
- 32P incorporated, % (PKA; PKA, AKRASAA taken as 100%): 38%
- rel rate (%) (γ-PAK [1]; Cdc42(GTPγS)-activated γ-PAK, peptide 1 mM, KKRKSAA = 100): 295%
- rel rate (%) (γ-PAK [1]; proteolytically (trypsin) activated γ-PAK, peptide 1 mM, compared to KKRKSAA = 100): 247%
- 32P incorporated (γ-PAK [1]; proteolytically activated γ-PAK (5.6 units), peptide 1 mM, 30 min at 30° C.): 750 pmol/min/µg
- 32P incorporated, % (γ-PAK [1]; γ-PAK, AKRASAA taken as 100%): 176%
- 32P incorporated (γ-PAK [1]; γ-PAK, calculated with equivalent units of enzyme): 47.2 pmol/unit
- rate of phosphorylation compared to AKRASAA (γ-PAK [1]; γ-PAK, relative to AKRASAA): 175%
- phosphorylation using ATP(Mg) or ATP(Mn) (in words) (γ-PAK [2]): good substrates
- 32P incorporated (PKC; PKC (3.4 units), with Ca2+ and phospholipids, 0.14 mM ATP): 0.4 pmol/unit
- 32P incorporated, % (PKC; PKC, AKRASAA taken as 100%): 12%
- increase of Km compared to AKRASAA (γ-PAK [3]): ~3 fold
- increase of Vmax compared to AKRASAA (γ-PAK [3]): 6 fold
- overall rate of phosphorylation (Vmax/Km) compared to AKRASAA (γ-PAK [3]): ~2.2 fold
- Vmax (γ-PAK [3]; Table 3, influence of acidic amino acids): 6.62 pmol/min
- Km (γ-PAK [3]; Table 3, influence of acidic amino acids, read-out: Km): 1.35 mM
- Vmax (γ-PAK [3]; text summary b32): 6.62 pmol/min
